Reference: publication PMC8268575 (International Journal of Molecular Sciences, 2021)
“Also recorded” adds a separate entry of the source.

Legend:
HUVEC = experiment: Substrate cleavage in HUVEC, supernatant analysed by MALDI-TOF/TOF; format: in vitro ADME, human; conditions: PRCP-inhibited (1 µM compound 8o) or PRCP/ACE2-inhibited HUVEC compared with control or ACE2-inhibited (1 µM DX600) HUVEC, 100 µM (pyr)-apelin-13, n = 4
Protocol: (§1) The experiment was independently conducted 4 times. […] The supernatants were desalted and concentrated by use of C18 ZipTips (Merck-Millipore, Burlington, MA, USA) and eluted directly on the MALDI target in 70% acetonitrile/0.1% TFA. Subsequently, a MALDI matrix solution of 2.5 mg/mL α-cyano-4-hydroxycinnamic acid in 70% acetonitrile/0.1% TFA was applied on each spot, air-dried at room temperature, and the target was introduced into a 4800 plus MALDI TOF/TOF^TM Analyzer. Mass spectrometry (MS) spectra (mass range: 600–4000 Da) were acquired in positive reflector mode with a laser intensity of 5000. To confirm the identity of the most important peptides, MS/MS spectra were generated by use of collision induced dissociation with a laser intensity of 5500. Calibration was done during analysis using the 6-peptide mixture (AB Sciex, Framingham, MA, USA). Mass spectra were generated by use of the 4000 Series Explorer and analyzed by mMas. […] The ratio of the peak intensity of the cleaved substrate to the peak intensity of the intact substrate is an indication for the C-terminal cleavage of the substrates. To check for additional cleavage sites, a search for other product peaks was completed. Statistical analysis was performed using SPSS software version 27 (IBM). Two-way ANOVA analysis was conducted to examine the effect of the two independent variables (treatment duration and treatment option) on the ratio of the peak intensities.

HAoEC = experiment: Substrate cleavage in HAoEC, supernatant analysed by MALDI-TOF/TOF; format: in vitro ADME, human; conditions: all inhibitor-treated HAoEC (1 µM compound 8o, 1 µM DX600 or both) compared with control, 100 µM (pyr)-apelin-13, n = 4
Protocol: as §1

recombinant human PREP [1] = molecular target: T1, recombinant human PREP (Homo sapiens, UniProt P48147); experiment: Cleavage by recombinant PREP, MALDI-TOF/TOF; conditions: pH 7.4 (0.1 M potassium phosphate, 1 mM EDTA, 5 mM DTT), 100 µM substrate, 0 s to 1 h
T1 sequence (P48147 1-710): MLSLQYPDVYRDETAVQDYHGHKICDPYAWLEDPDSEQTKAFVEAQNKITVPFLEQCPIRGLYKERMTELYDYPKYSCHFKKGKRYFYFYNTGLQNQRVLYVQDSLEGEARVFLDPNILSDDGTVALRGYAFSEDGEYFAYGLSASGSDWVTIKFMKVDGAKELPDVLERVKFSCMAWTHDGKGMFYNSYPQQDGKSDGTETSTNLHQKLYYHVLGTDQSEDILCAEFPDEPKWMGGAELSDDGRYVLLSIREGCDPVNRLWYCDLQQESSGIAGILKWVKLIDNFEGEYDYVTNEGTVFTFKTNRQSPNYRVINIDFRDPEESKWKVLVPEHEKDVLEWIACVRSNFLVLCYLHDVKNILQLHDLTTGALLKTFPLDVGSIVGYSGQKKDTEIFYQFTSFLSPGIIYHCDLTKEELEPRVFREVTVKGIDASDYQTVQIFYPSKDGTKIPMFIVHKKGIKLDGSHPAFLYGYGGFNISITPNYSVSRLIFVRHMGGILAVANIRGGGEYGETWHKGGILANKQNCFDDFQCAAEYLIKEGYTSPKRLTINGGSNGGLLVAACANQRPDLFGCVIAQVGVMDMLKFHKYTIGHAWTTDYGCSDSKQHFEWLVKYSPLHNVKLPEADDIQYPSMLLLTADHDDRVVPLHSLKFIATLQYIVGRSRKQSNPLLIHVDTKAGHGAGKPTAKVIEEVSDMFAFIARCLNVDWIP
Protocol: Supplementary Material File S3. Cleavage by recombinant PREP
Recombinant human PREP, expressed in BL21 (DE3) cells as previously described, was […]
(Laboratory for Medicinal Chemistry, University of Antwerp) or vehicle control at pH 7.4 (0.1 M potassium phosphate, 1 mM EDTA and 5 mM DTT). 100 μM substrate ((pyr)-apelin-13, (pyr)-apelin-13(1-12), Ang II or α-MSH 1-13) or vehicle control (PBS) was added. The reaction was stopped by acidification (pH<3) with 0.1% TFA after different time periods (0 s, 30 s, 1 min, 5 min, 15 min, 30 min or 1 h) and samples were stored at -80 °C.
A search for product peaks of the different peptides was conducted.
1. Van Elzen, R.; Schoenmakers, E.; Brandt, I.; Van Der Veken, P.; Lambeir, A.M.
Ligand-induced conformational changes in prolyl oligopeptidase: A kinetic approach.

[2] = HAoEC, 10,000 cells per well, in assay medium; supernatant analysed; conditions: human, 37 °C, up to 24 h
[3] = HUVEC, 10,000 cells per well, in assay medium; supernatant analysed; conditions: human, 37 °C, up to 24 h
PRCP [4] = experiment: PRCP activity (RP-HPLC, Z-Pro-Phe) after pro-inflammatory stimulation of HUVEC; format: cell-based, human; conditions: 16 h, 200 ng/mL LPS, 10 ng/mL TNFα or 5 ng/mL IL-1β; for PRCP activity in the cell lysate versus vehicle control: Kruskal-Wallis p = 0.066; for PRCP activity in the supernatant versus vehicle control: n = 4–6
Protocol: (§2) HUVEC and HAoEC were seeded in a 6-well plate at a density of 2.5 × 10^5 cells per well in 2 mL full medium for 24 h. Subsequently, cells were treated with 200 ng/mL LPS, 10 ng/mL TNFα, 5 ng/mL IL-1β, or vehicle control for 16 h. Subsequently, supernatants were collected and concentrated four times for PRCP activity measurements using Centriprep® Centrifugal Filter Devices, 30 K (Merck-Millipore, Burlington, MA, USA). For PRCP activity measurement, cells were collected per well and lysed 1 h on ice in 75 µL lysis buffer (1% octylglucoside, 10 mM EDTA, 70 µg/mL aprotinin, 50 mM Tris pH 8.3). Appropriate stimulation was confirmed by determining interleukin-6 (IL-6) and interleukin-8 (IL-8) levels in the 16 h aspirate by use of ELISA (Supplementary Materials File S7).
(§3) PRCP activity was measured in the cellular supernatant and cell lysate using a validated high-performance liquid chromatography (HPLC) method as described previously. Ten µL of each sample was incubated in duplicate with 75 µL 8 mM Z-Pro-Phe at pH 5 (0.1 M Natrium Acetate, 10 mM EDTA) for 2 h at 37 °C. To stop the enzymatic reaction, 75 µL stop solution (10% perchloric acid and 20% acetonitrile in purified water) was added and samples were centrifuged at 12,000× g for 10 min at 4 °C. Ten µL of the supernatant was injected into a reversed phase HPLC system (Shimadzu, Kioto, Japan) and the enzymatically formed Z-Pro was determined by its UV absorbance at 210 nm. Quantification was performed by peak height measurements. The PRCP activity is expressed as units per gram (U/g) protein for the cell lysate or units per liter (U/L) for the supernatant. One unit defines the amount of enzyme that hydrolyses 1 μmol of substrate per minute. Protein concentrations were determined via the Bradford method with bovine serum albumin as the standard protein. Statistical analyses were performed using SPSS software version 27 (IBM) and graphs were designed using Graphpad Prism 9 software. Differences in PRCP activity in the cell lysate and supernatant between control and stimulated cells were evaluated by Kruskal-Wallis and Mann-Whitney U-tests. Manual Bonferroni-correction was assessed for multiple testing based on relevant pairwise comparisons. Significant results are indicated with an asterisk (* p < 0.05, ** p < 0.01).

PRCP [5] = experiment: PRCP activity (RP-HPLC, Z-Pro-Phe) after pro-inflammatory stimulation of HAoEC; format: cell-based, human; conditions: 16 h, 200 ng/mL LPS, 10 ng/mL TNFα or 5 ng/mL IL-1β; for PRCP activity in the cell lysate versus vehicle control: Kruskal-Wallis p = 0.563; for PRCP activity in the supernatant versus vehicle control: n = 4–6
Protocol: as §2, §3

ACE2 [6] = experiment: ACE2 activity (Mca-Ala-Pro-Lys(Dnp)-OH) after pro-inflammatory stimulation of HUVEC; format: cell-based, human; conditions: 16 h, 200 ng/mL LPS, 10 ng/mL TNFα or 5 ng/mL IL-1β, n = 4-6, p = 0.098
Protocol: (§4) Supplementary Material File S2. ACE2 activity measurement
(§5) HUVEC and HAoEC were seeded in a 6-well plate at a density of 2.5x10^5 cells per well in 2 mL full medium for 24 h. Cells were treated with 200 ng/mL LPS, 10 ng/mL TNFα, 5 ng/mL IL-1β or vehicle control for 16 h. Supernatants were collected and concentrated four times using Centriprep Centrifugal Filter Devices, 30 K (Merck-Millipore). Cells were collected per well and lysed 1 h on ice in 75 µL lysis buffer (1% octyl glucoside, 10 mM EDTA, 70 µg/mL aprotinin, 50 mM Tris pH 8.3).
(§6) ACE2 activity was measured using the substrate Mca-Ala-Pro-Lys(Dnp)-OH (Bachem).
(§7) Samples were incubated with 100 µM of the substrate at pH 6.5 (50 mM MES, 300 mM NaCl, 10 µM Zn Cl2, 0.01% Triton X-100) in a black 96-well plate and ACE2 activity was measured kinetically for 1 h at 37 °C (λex=320 nm, λem=405 nm), using the Infinite 200 microplate reader (Tecan) and the Magellan software was used to process the data. Concentration of the generated Mca-Ala-Pro was determined by means of a standard curve. Specificity was determined by pre-incubating the samples for 15 min with 1 µM of the specific ACE2-inhibitor DX600. The ACE2 activity is expressed as units per gram (U/g) protein for the cell lysate. […] Protein concentrations were determined via the Bradford method with BSA as the standard protein. […]

ACE2 [7] = experiment: ACE2 activity (Mca-Ala-Pro-Lys(Dnp)-OH) after pro-inflammatory stimulation of HAoEC; format: cell-based, human; conditions: 16 h, 200 ng/mL LPS, 10 ng/mL TNFα or 5 ng/mL IL-1β, n = 4-6, p = 0.422
Protocol: as §4, §5, §6, §7

PRCP [8] = experiment: in vitro; conditions: cited from earlier work
rat plasma = conditions: cited from earlier work
human plasma = conditions: cited from earlier work
mouse plasma = conditions: cited from earlier work
[9] = tested on: Angiotensin-converting enzyme 2 (ACE2, EC 3.4.17.23); conditions: cited from earlier work
[10] = human plasma of healthy volunteers; conditions: cited from earlier work
[11] = 24 h cellular supernatant of HUVEC (assay medium), in the absence of cells; conditions: human, 37 °C, up to 1 h
Recombinant human PREP [12] = experiment: Recombinant human PREP at pH 7.4 (0.1 M potassium phosphate, 1 mM EDTA and 5 mM DTT); conditions: up to 1 h

Row | Compound | cleaved bond [2] | cleaved bond [3] | PRCP activity in the cell lysate versus vehicle control (PRCP [4]) | PRCP activity in the supernatant versus vehicle control (PRCP [4]) | PRCP activity in the cell lysate versus vehicle control (PRCP [5]) | PRCP activity in the supernatant versus vehicle control (PRCP [5]) | ACE2 activity in the cell lysate versus vehicle control (ACE2 [6]) | ACE2 activity in the cell lysate versus vehicle control (ACE2 [7]) | other results
1 | CSCC[C@H](NC(=O)[C@@H]1CCCN1C(=O)CNC(=O)[C@H](CCCCN)NC(=O)[C@H](Cc1c[nH]cn1)NC(=O)[C@H](CO)NC(=O)[C@H](CC(C)C)NC(=O)[C@H](CCCNC(=N)N)NC(=O)[C@@H]1CCCN1C(=O)[C@H](CCCNC(=N)N)NC(=O)[C@@H]1CCC(=O)N1)C(=O)N1CCC[C@H]1C(=O)O [(pyr)-apelin-13(1–12)] |  |  |  |  |  |  |  |  | (pyr)-apelin-13(1–12) detected in supernatant after 24 h (HUVEC): Significantly less; (pyr)-apelin-13(1–12) observed in supernatant after 24 h (HAoEC): significantly less; Cleavage by recombinant human PREP (recombinant human PREP [1]): did not cleave
2 | Ac-SYSMEHFRWGKPV-NH₂ | P12-V13 | P12-V13 |  |  |  |  |  |  | fragment found [2]: α-MSH 1-10; fragment found [3]: α-MSH 1-10
3 | IL-1β: pro-inflammatory stimulus, 5 ng/mL |  |  | no difference | increase in PRCP activity | no difference | increase in PRCP activity | No difference | No difference | 
4 | TNFα |  |  | no difference | increase in PRCP activity | no difference | increase in PRCP activity | No difference | No difference | 
5 | pERPRLSHKGPMPF | P12-Phe13, 8 h; also recorded: Ser6-His7, 8 h | P12-Phe13, 24 h |  |  |  |  |  |  | cleaved bond (PRCP [8]): P12-Phe13; cleaved bond (rat plasma): Leu5-Ser6, first_seen; also recorded: Ser6-His7; cleaved bond (human plasma): Leu5-Ser6, first_seen; also recorded: Ser6-His7; cleaved bond (mouse plasma): Leu5-Ser6, first_seen; also recorded: Ser6-His7; cleaved bond [9]: P12-Phe13; fragment found [10]: (pyr)-apelin-13(1-6); not cleaved [3]: In HUVEC, this product could not be detected; cleaved bond [11]: P12-Phe13, 1 h; not cleaved (Recombinant human PREP [12]): Only the peaks corresponding with the intact peptides could be observed
